Results as given in PubChem BioAssay AID1963863 (Molecular Pharmacology Branch, DTP, NCI, 2024).

Test system: 931267-113-T-J1-PDC KRAS spheroid with HUVEC/MSC, viability
Experiment: Anticancer human tumor 931267-113-T-J1-PDC patient-derived colon adenocarcinoma cell line growth inhibition [KRAS2]
Settings: for IC50: curve of first compound; for viability, T/C: stronger effect = lower value
Text: Multicellular complex tumor spheroid response to RAS pathway inhibitors in combination with a targeted agents in patient-derived cell lines with oncogenic KRAS variants from multiple cancer types
A high-throughput screen of multi-cell type tumor spheroids was designed to identify active combinations of targeted small molecules and KRAS pathway inhibitors. Complex spheroids include a stromal component modeled by human endothelial cells (HUVEC) and fibroblasts modeled by human mesenchymal stem cells (MSCs). The concentration ranges selected for each drug and investigational agent were based upon clinically achievable concentrations if the clinical Cmax of the agent was known.
Compounds. The drugs and investigational agents: BI-3406 (NSC825286), BAY-293 (NSC824723), batoprotafib (TNO155; NSC825523), sotorasib (AMG 510; NSC818433), MRTX1257 (NSC819558), elimusertib (BAY 1895344; NSC800525), molibresib (GSK525762; NSC774829), temuterkib (LY3214996; NSC803410), venetoclax (NSC766270), alisertib (NSC759677), olaparib (NSC753686), talazoparib (NSC767125), erdafitinib (NSC781556), ipatasertib (NSC767898), cabozantinib (NSC761068), nintedanib (NSC756659), abemaciclib (NSC768073), docetaxel (NSC628503), trametinib (NSC758246), and sapanisertib (NSC764658) were obtained from the National Cancer Institute (NCI) Developmental Therapeutics Program Chemical Repository. The FDA-approved anticancer drug set is available from the Developmental Therapeutics Program. […] The stock solutions were prepared in dimethyl sulfoxide (DMSO, Sigma-Aldrich, St. Louis, MO, cat. D2650) at 800-fold the tested concentration and stored at -70 degrees C prior to their use. All drugs and investigational agents were tested over a range starting from a high concentration at or near the clinical Cmax and decreasing in half-log increments. If the clinical Cmax for an agent had not been determined, the highest concentration tested was 10 microM.
Cell Culture. All cells were maintained in an incubator at 37 degrees C and 5% CO2 with 95% humidity. The PDC lines were cultured according to standard operating procedures established by the NCI PDMR (https://pdmr.cancer.gov/sops/default.htm). Briefly, all PDCs were thawed and cultured in Matrigel-coated flasks prepared with a working solution of 1X Ham's F-12 nutrient mix, without supplementation (Invitrogen, Waltham, MA, cat. 11765054), 100 U/mL penicillin-streptomycin (Invitrogen, cat. 15140122), and 2.5% Matrigel (Corning Inc., Corning, NY, cat. 354248) for the first three passages. All PDCs were cultured in complete DMEM/F-12 media containing advanced DMEM/F-12 (Invitrogen, cat. 12634028), 4.9% defined fetal bovine serum, heat inactivated (HyClone Laboratories Inc., Logan, UT, cat. SH30070.03HI), 389 ng/mL hydrocortisone (Sigma-Aldrich, cat. H4001), 9.7 ng/mL human EGF recombinant protein (Invitrogen, cat. PHG0313), 23.4 microg/mL adenine (Sigma-Aldrich, cat. A2786), 97.3 U/mL penicillin-streptomycin (Invitrogen, cat. 15140122), 1.9 mM L-glutamine (Invitrogen, cat. 25030081), and 9.7 microM Y-27632 dihydrochloride (Tocris Bioscience, Bristol, United Kingdom, cat. 1254). The PDCs were cultured in complete DMEM/F12 media without 9.7 microM Y-27632 dihydrochloride for at least two passages prior to the screen. The established cell line HOP-62 was cultured in RPMI 1640 medium, HEPES (Invitrogen, cat. 22400105) with 10% defined fetal bovine serum (HyClone Laboratories Inc., cat. SH30070.03) and 2 mM L-glutamine (Invitrogen, cat. 25030081). The pooled donor HUVEC were cultured in endothelial cell growth medium 2 (PromoCell, Heidelberg, Germany, cat. C-22011) and the hMSC were cultured in mesenchymal stem cell growth medium 2 (PromoCell, cat. C-28009). For all experiments, HUVEC and hMSC were used at passages </=5, while the malignant cell lines were used at passages </=15. […]

[1] = second compound 0.1 µM, first compound 0.0316 µM
[2] = second compound 0.1 µM, first compound 0.1 µM
[3] = second compound 0.1 µM, first compound 0.316 µM
[4] = second compound 0.1 µM, first compound 1 µM
[5] = second compound 0.1 µM, first compound 3.16 µM
[6] = second compound 0.1 µM, first compound 10 µM
[7] = second compound 0.316 µM, first compound 0.0316 µM
[8] = second compound 0.316 µM, first compound 0.1 µM
[9] = second compound 0.316 µM, first compound 0.316 µM
[10] = second compound 0.316 µM, first compound 1 µM
[11] = second compound 0.316 µM, first compound 3.16 µM
[12] = second compound 0.316 µM, first compound 10 µM
[13] = second compound 1 µM, first compound 0.0316 µM
[14] = second compound 1 µM, first compound 0.1 µM
[15] = second compound 1 µM, first compound 0.316 µM
[16] = second compound 1 µM, first compound 1 µM
[17] = second compound 1 µM, first compound 3.16 µM
[18] = second compound 1 µM, first compound 10 µM
[19] = second compound 3.16 µM, first compound 0.0316 µM
[20] = second compound 3.16 µM, first compound 0.1 µM
[21] = second compound 3.16 µM, first compound 0.316 µM
[22] = second compound 3.16 µM, first compound 1 µM
[23] = second compound 3.16 µM, first compound 3.16 µM
[24] = second compound 3.16 µM, first compound 10 µM
[25] = second compound 10 µM, first compound 0.0316 µM
[26] = second compound 10 µM, first compound 0.1 µM
[27] = second compound 10 µM, first compound 0.316 µM
[28] = second compound 10 µM, first compound 1 µM
[29] = second compound 10 µM, first compound 3.16 µM
[30] = second compound 10 µM, first compound 10 µM
[31] = second compound 0.1 µM, first compound 0.000316 µM
[32] = second compound 0.1 µM, first compound 0.001 µM
[33] = second compound 0.1 µM, first compound 0.00316 µM
[34] = second compound 0.1 µM, first compound 0.01 µM
[35] = second compound 0.316 µM, first compound 0.000316 µM
[36] = second compound 0.316 µM, first compound 0.001 µM
[37] = second compound 0.316 µM, first compound 0.00316 µM
[38] = second compound 0.316 µM, first compound 0.01 µM
[39] = second compound 1 µM, first compound 0.000316 µM
[40] = second compound 1 µM, first compound 0.001 µM
[41] = second compound 1 µM, first compound 0.00316 µM
[42] = second compound 1 µM, first compound 0.01 µM
[43] = second compound 3.16 µM, first compound 0.000316 µM
[44] = second compound 3.16 µM, first compound 0.001 µM
[45] = second compound 3.16 µM, first compound 0.00316 µM
[46] = second compound 3.16 µM, first compound 0.01 µM
[47] = second compound 10 µM, first compound 0.000316 µM
[48] = second compound 10 µM, first compound 0.001 µM
[49] = second compound 10 µM, first compound 0.00316 µM
[50] = second compound 10 µM, first compound 0.01 µM
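Note: compound exposure lasted 7 days before the readout.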
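Throughout, for viability, T/C: 100% = DMSO vehicle control viability.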

SMILES | IC50 (second compound 0.1 µM) [µM] | IC50 (second compound 0.316 µM) [µM] | IC50 (second compound 1 µM) [µM] | IC50 (second compound 3.16 µM) [µM] | IC50 (second compound 10 µM) [µM] | viability, T/C [1] [%] | viability, T/C [2] [%] | viability, T/C [3] [%] | viability, T/C [4] [%] | viability, T/C [5] [%] | viability, T/C [6] [%] | viability, T/C [7] [%] | viability, T/C [8] [%] | viability, T/C [9] [%] | viability, T/C [13] [%] | viability, T/C [14] [%] | viability, T/C [19] [%] | viability, T/C [20] [%] | viability, T/C [25] [%] | viability, T/C [26] [%] | also measured
CC(C)NCC(C(=O)N1CCN(c2ncnc3c2C(C)CC3O)CC1)c1ccc(Cl)cc1 (stereo not given) + C=CC(=O)N1CCN(c2nc(=O)n(-c3c(C)ccnc3C(C)C)c3nc(-c4c(O)cccc4F)c(F)cc23)C(C)C1 | 6.74 | 5.61 | 4.63 | 6.03 | 1.81 | 109 | 97.2 | 85.8 | 89.1 | 71.7 | 38.5 | 95.5 | 83.2 | 80.2 | 95.9 | 96 | 83.7 | 90.6 | 81.4 | 71.4 | viability, T/C [10]: 75.1%; viability, T/C [11]: 62.5%; viability, T/C [12]: 38.2%; viability, T/C [15]: 76.8%; viability, T/C [16]: 71.2%; viability, T/C [17]: 68%; viability, T/C [18]: 28.8%; viability, T/C [21]: 80.6%; viability, T/C [22]: 79.1%; viability, T/C [23]: 64.7%; viability, T/C [24]: 38.3%; viability, T/C [27]: 70.5%; viability, T/C [28]: 49.7%; viability, T/C [29]: 50.7%; viability, T/C [30]: 22.4%
CC(C)n1nc(-c2ccc3oc(N)nc3c2)c2c(N)ncnc21 + C=CC(=O)N1CCN(c2nc(=O)n(-c3c(C)ccnc3C(C)C)c3nc(-c4c(O)cccc4F)c(F)cc23)C(C)C1 | 0.0108 | 0.00904 | 0.00794 | 0.00947 | 0.00824 | 34.3 | 26.7 | – | – | – | – | 33.6 | 27.2 | – | 27.9 | 25.1 | 28.9 | 22.3 | 25.1 | 22 | viability, T/C [31]: 106%; viability, T/C [32]: 89.4%; viability, T/C [33]: 83.5%; viability, T/C [34]: 48.2%; viability, T/C [35]: 116%; viability, T/C [36]: 75.7%; viability, T/C [37]: 77.4%; viability, T/C [38]: 44.8%; viability, T/C [39]: 100%; viability, T/C [40]: 117%; viability, T/C [41]: 87.6%; viability, T/C [42]: 41.2%; viability, T/C [43]: 108%; viability, T/C [44]: 94.4%; viability, T/C [45]: 95.6%; viability, T/C [46]: 47.1%; viability, T/C [47]: 101%; viability, T/C [48]: 86.4%; viability, T/C [49]: 69.7%; viability, T/C [50]: 48.4%
CC1(C)CCC(CN2CCN(c3ccc(C(=O)NS(=O)(=O)c4ccc(NCC5CCOCC5)c([N+](=O)[O-])c4)c(Oc4cnc5[nH]ccc5c4)c3)CC2)=C(c2ccc(Cl)cc2)C1 + C=CC(=O)N1CCN(c2nc(=O)n(-c3c(C)ccnc3C(C)C)c3nc(-c4c(O)cccc4F)c(F)cc23)C(C)C1 | 2.24 | 1.82 | 1.99 | 2.12 | 1.77 | 107 | 85 | 84.2 | 103 | 30.8 | 5.11 | 86.8 | 102 | 96.8 | 86.5 | 104 | 76.4 | 98 | 98.5 | 75.2 | viability, T/C [10]: 71.6%; viability, T/C [11]: 29.5%; viability, T/C [12]: 10.2%; viability, T/C [15]: 79.9%; viability, T/C [16]: 91.7%; viability, T/C [17]: 22.5%; viability, T/C [18]: 2.37%; viability, T/C [21]: 109%; viability, T/C [22]: 99%; viability, T/C [23]: 25.7%; viability, T/C [24]: 8.95%; viability, T/C [27]: 83.1%; viability, T/C [28]: 76.5%; viability, T/C [29]: 23.1%; viability, T/C [30]: 3.34%
Cn1ncnc1[C@H]1c2n[nH]c(=O)c3cc(F)cc(c23)N[C@@H]1c1ccc(F)cc1 + C=CC(=O)N1CCN(c2nc(=O)n(-c3c(C)ccnc3C(C)C)c3nc(-c4c(O)cccc4F)c(F)cc23)C(C)C1 | > 0.1 | > 0.1 | > 0.1 | > 0.1 | > 0.1 | 102 | 93 | – | – | – | – | 98.9 | 72.7 | – | 94.6 | 80.8 | 90.3 | 89.8 | 96 | 102 | viability, T/C [31]: 106%; viability, T/C [32]: 98.3%; viability, T/C [33]: 81.8%; viability, T/C [34]: 92.3%; viability, T/C [35]: 110%; viability, T/C [36]: 110%; viability, T/C [37]: 101%; viability, T/C [38]: 105%; viability, T/C [39]: 117%; viability, T/C [40]: 107%; viability, T/C [41]: 93.1%; viability, T/C [42]: 100%; viability, T/C [43]: 97.7%; viability, T/C [44]: 106%; viability, T/C [45]: 98.8%; viability, T/C [46]: 85.1%; viability, T/C [47]: 117%; viability, T/C [48]: 103%; viability, T/C [49]: 84.3%; viability, T/C [50]: 99.8%
